This note sets out measurements from ChEMBL document CHEMBL1201862, “PubChem BioAssay data set” (2004).

Holding throughout (test): DTP human tumour cell line panel, 48 h
Test [1] concerns A498.
Test [2] deals with DU-145.
Test [3] deals with OVCAR-5.
For test [4], the system named is OVCAR-4.
For test [5], the system named is PC-3.
Test [6] concerns SF-268.
The subject of test [7] is SK-OV-3.
For test [8], the system named is K562.
Test [9] concerns SK-MEL-28.
Test [10] concerns CCRF-CEM.
In test [11] the test system is MDA-N.
The test system of test [12] is SK-MEL-2.
Test [13] concerns KM12.
Test [14] concerns UO-31.
The subject of test [15] is 786-0.
The subject of test [16] is HOP-62.
Test [17] has as its system HT-29.
For test [18], the system named is BT-549.
Test [19] deals with Malme-3M.
The subject of test [20] is RXF 393.

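Test compounds were applied to cells in 96-well plates for 48 hours at 5 doses. Here, GI50 denotes the concentration required for 50% inhibition of growth.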 The source made the active and inactive calls. Rule as the data show it: active = GI50 up to about 1.1 µM and inactive = higher.

The term GI50 denotes the concentration giving 50% growth inhibition.

On to `CN(C)c1ccc(/C=C2\N=C(c3ccccc3)N(c3nc4c(Cl)cc(Cl)cc4s3)C2=O)cc1`, for which the GI50 in test [1] was 27.4 µM (inactive); in test [2] it was > 100 µM (inactive); in test [3] it was 57.9 µM (inactive); in test [4] it was 39.2 µM (inactive); in test [5], 32.4 µM (inactive); in test [6] it was 48.6 µM (inactive). For the same compound, the GI50 was > 100 µM (inactive) in test [7]; 31.6 µM (inactive) in test [8]; 54.6 µM (inactive) in test [9]; 0.731 µM (active) in test [10]; 22.9 µM (inactive) in test [11]; 49.9 µM (inactive) in [12]. Besides, the GI50 in [13] is 34.2 µM (inactive); in test [14], 43.8 µM (inactive); in [15] it was 77.1 µM (inactive); in test [16], > 100 µM (inactive); in test [17], 38.4 µM (inactive); in test [18] it was 54.3 µM (inactive).

Turning to `CC(C)(C)OC(=O)n1c2ccccc2c2c(=O)nc(N3CCCCC3)sc21`, the GI50 in test [1] is > 100 µM (inactive); in test [2], > 100 µM (inactive); in test [3] it was > 100 µM (inactive); in test [4], > 100 µM (inactive); in test [5], > 100 µM (inactive); in test [6], 58.9 µM (inactive). The GI50 in test [7], in test [19], in test [8], in test [9], in test [10] and in test [11] was > 100 µM (inactive) in each case. Moreover, the GI50 in [12] is > 100 µM (inactive); in test [13] it was > 100 µM (inactive); in [14] it was 22.3 µM (inactive); in test [15], > 100 µM (inactive); in test [16] it was > 100 µM (inactive); in test [17] it was > 100 µM (inactive). Besides, the GI50 in test [18] is > 100 µM (inactive).

Turning to `O=C1C(=Cc2ccccc2O)N=C(c2ccccc2)N1n1c(-c2ccccc2)nc2ccccc2c1=O`, the GI50 is 21.5 µM (inactive) in [1]; 35.5 µM (inactive) in [2]; 34 µM (inactive) in test [5]; 21.3 µM (inactive) in test [6]; 48.3 µM (inactive) in test [7]; 45.7 µM (inactive) in test [19]. The GI50 in [8] is 29.6 µM (inactive); in test [9] it was 33.8 µM (inactive); in test [10] it was 28.4 µM (inactive); in test [11], 32.4 µM (inactive); in test [13] it was 30.3 µM (inactive); in [14] it was 27.5 µM (inactive). Further, the GI50 in test [15] was 42.1 µM (inactive); in test [16] it was 31.3 µM (inactive); in test [17] it was 37.2 µM (inactive); in [18], 28.8 µM (inactive).

For `CC(C)(C)N/C(N)=N/C#N`, the GI50 in test [2], in test [3], in [4], in [20], in test [5] and in [6] was > 100 µM (inactive) throughout. Moreover, the GI50 in test [7], in [19], in test [8], in test [9], in test [10] and in test [11] was > 100 µM (inactive) throughout. In addition, the GI50 in test [12], in test [14], in test [15], in [16], in test [17] and in test [18] was > 100 µM (inactive) each time.

Take `CC1=C(C)C(=O)C2=C(OCCO2)C1=O`: the GI50 in test [1] is 19.5 µM (inactive); in test [2], 18.8 µM (inactive); in test [3] it was 19.7 µM (inactive); in test [5] it was 18.2 µM (inactive); in test [6], 27.1 µM (inactive); in test [7], 17.9 µM (inactive). Further, the GI50 in test [19] was 15.9 µM (inactive); in test [9] it was 16.1 µM (inactive); in [10], 3.73 µM (inactive); in [11], 10.3 µM (inactive); in [13], 17.3 µM (inactive); in test [14] it was 10.1 µM (inactive). The GI50 in test [15] is 22.5 µM (inactive); in test [16], 17.7 µM (inactive); in test [17], 20 µM (inactive); in test [18], 22.8 µM (inactive).

Consider `CCc1nn(CN2CCOCC2)c(=S)n1/N=C/c1ccc(-c2ccc(Cl)cc2)o1`, for which the GI50 in [1], in test [2], in [3], in test [4], in test [20] and in test [5] was > 100 µM (inactive) each time. Further, the GI50 in [6], in [8], in [9], in test [11], in test [12] and in test [13] was > 100 µM (inactive) throughout. The GI50 in test [14], in test [15], in test [16], in test [17] and in [18] was > 100 µM (inactive) each time.

On to `Clc1sc(Cl)c2c1[C@H](Br)C[C@@H]2Cl`, for which the GI50 in test [2] is 33.7 µM (inactive); in test [3], > 100 µM (inactive); in test [4] it was 55.8 µM (inactive); in [20] it was 26 µM (inactive); in test [5], 40.3 µM (inactive); in test [6] it was 23 µM (inactive). The GI50 was > 100 µM (inactive) in test [7]; 21.9 µM (inactive) in test [19]; 38.5 µM (inactive) in test [8]; 29 µM (inactive) in test [9]; 17.5 µM (inactive) in test [10]; 41.7 µM (inactive) in [11]. In addition, the GI50 was 59.8 µM (inactive) in test [12]; 39.8 µM (inactive) in test [13]; 18.3 µM (inactive) in test [14]; 32.9 µM (inactive) in test [15]; 83.9 µM (inactive) in test [16]; 35 µM (inactive) in test [17]. Moreover, in test [18], the GI50 was 18.2 µM (inactive).

For `CC1=NC(=Cc2ccc(Cl)cc2)C(=O)N1n1c(-c2ccccc2)nc2ccccc2c1=O`, the GI50 in test [1] was 24.6 µM (inactive); in test [2] it was 38.1 µM (inactive); in test [5], 24.3 µM (inactive); in test [6] it was 51.9 µM (inactive); in test [7] it was 38.5 µM (inactive); in test [19] it was 33.2 µM (inactive). The GI50 in [8] is 34.8 µM (inactive); in [9], 51.4 µM (inactive); in [10], 37.8 µM (inactive); in test [11], 35.1 µM (inactive); in test [13], 36.4 µM (inactive); in test [14], 37.2 µM (inactive). The GI50 in [15] is 40.6 µM (inactive); in test [16], 47.2 µM (inactive); in test [17], 37 µM (inactive); in [18] it was 40.6 µM (inactive).

Turning to `CC1N=C(c2ccccc2)OC1=O` (centres undefined), the GI50 in test [1], in test [2], in test [3], in [4], in test [5] and in test [6] was > 100 µM (inactive) in each case. The GI50 in [7], in test [19], in test [8], in test [9], in [10] and in [11] was > 100 µM (inactive) throughout. The GI50 in [12], in test [13], in test [14], in test [15], in test [16] and in test [17] was > 100 µM (inactive) throughout. The GI50 in test [18] was > 100 µM (inactive).

As to `O=C(Nc1ccc2[nH]c(C(=O)N3CC(CCl)c4c3cc([N+](=O)[O-])c3ccccc43)cc2c1)Nc1ccc2[nH]c(C(=O)N3CC(CCl)c4c3cc([N+](=O)[O-])c3ccccc43)cc2c1` (centres undefined), the GI50 in [1], in [2], in test [3], in [4], in test [5] and in [6] was > 100 µM (inactive) in each case. Further, the GI50 is > 100 µM (inactive) in test [7]; > 100 µM (inactive) in test [19]; > 100 µM (inactive) in test [9]; 22.4 µM (inactive) in [10]; > 100 µM (inactive) in test [11]; > 100 µM (inactive) in test [12]. The GI50 in test [13] was > 100 µM (inactive); in test [14] it was 17.9 µM (inactive); in test [15], > 100 µM (inactive); in [16], > 100 µM (inactive); in test [18], > 100 µM (inactive).

`CN(C)CCNc1ncnc2[nH]c(-c3ccc4ccccc4c3)nc12`: the GI50 in [2], in [3], in test [4], in test [20], in test [5] and in [6] was > 100 µM (inactive) throughout. The GI50 in [7], in test [19], in test [8], in [9], in test [10] and in test [11] was > 100 µM (inactive) each time. Besides, the GI50 in [12], in test [13], in test [14], in test [15], in [16] and in test [17] was > 100 µM (inactive) each time. In [18], the GI50 is > 100 µM (inactive).
